The conditions of data set [1]: cited from earlier work.
A short description of data set [2]: Solubilizing CD-Dau, Daunorubicine and t-boc in Neowater (Example 7). The format is physicochemical. Here is the method: Required concentration: 3 mg/ml Neowater.
Properties: The material dissolves in EtOH.
5 different glass vials were prepared: • 1. 5 mg CD-Dau+1.2 ml Neowater™. • 2. 1.8 mg CD-Dau+600 μl acetone. • 3. 1.8 mg CD-Dau+150 μl acetone+450 μl Neowater™ (25% acetone). • 4. 1.8 mg CD-Dau+600 μl 10% *PEG (Polyethylene Glycol). • 5. 1.8 mg CD-Dau+600 μl acetone+600 μl Neowater™. • The samples were vortexed and spectrophotometer measurements were performed on vials #1, 4 and 5 • The vials were left opened in order to evaporate the acetone (vials #2, 3, and 5).
As soon as the acetone was evaporated from solutions #2, 4 and 5, the material sedimented slightly and an additional amount of acetone was added to the vials. This protocol enables the dissolving of the material in the presence of acetone and Neowater™ while at the same time enabling the subsequent evaporation of acetone from the solution (this procedure was performed twice). Following the second cycle the liquid phase was removed from the vile and additional amount of acetone was added to the sediment material. Once the sediment material dissolved it was merged with the liquid phase removed previously. The merged solution was evaporated again. […] Later 1.2 ml of 10% PEG+Neowater™ were added also and after some time the acetone was evaporated from the solution. Finalizing these procedures, the vials were merged to one vial (total volume of 3 ml). On top of this final volume 3 ml of acetone were added in order to dissolve the material and to receive a lucid liquefied solution, which was then evaporated again at 50° C. The solution didn't reach equilibrium due to the fact that once reaching such status the solution would have been separated. By avoiding equilibrium, the material hydration status was maintained and kept as liquid. After the solvent evaporated the material was transferred to a clean vial and was closed under vacuum conditions.
2 mg Daunorubicine+1 ml Neowater™ was prepared in one vial and 2 mg of Daunorubicine+1 ml RO was prepared in a second vial.
1.14 ml of EtOH was added to one glass vial containing 18.5 mg of t-boc (an oily material). This was then divided into two vials and 1.74 ml Neowater™ or RO water was added to the vials such that the solution comprised 25% EtOH. Following spectrophotometer measurements, the solvent was evaporated from the solution and Neowater™ was added to both vials to a final volume of 2.31 ml in each vial. The solutions in the two vials were merged to one clean vial and packaged for shipment under vacuum conditions.

Data set [3] can be described thus: Taxol in Neowater by slow solvent exchange, HPLC after storage (Example 16). Conditions: taxol dispersed in Neowater, 6 month storage at −20° C. In kind it is physicochemical. The method, then:
Solubilization: 0.5 mM Taxol solution was prepared (0.0017 gr in 4 ml). […] At the end of the procedure, less than 40% ethanol remained in the solution, leading to 0.08% of ethanol in the final administered concentration. The solution was sterilized using a 0.2 μm filter. Taxol was separately prepared in DMSO (0.5 mM). Both solutions were kept at −20° C. Absorbance was detected with a spectrophotometer.

The nature of data set [4]: Solubilization of taxol in DMSO or Neowater with 17% EtOH (Example 13). In kind it is physicochemical. Here is the method: The following experiments were performed in order to ascertain whether the carrier composition comprising nanostructures was capable of dissolving material taxol (Paclitaxel) at a final concentration of 0.5 mM.
Solubilization: 0.5 mM Taxol solution was prepared (0.0017 gr in 4 ml) in either DMSO or Neowater™ with 17% EtOH. Absorbance was detected with a spectrophotometer.

Data set [5] can be described thus: Solubilization of retinol in Neowater, absorbance and filtration (Example 10). The format is physicochemical. Here is the method:
Retinol (vitamin A) was purchased from Sigma (Fluka, 99% HPLC). Retinol was solubilized in Neowater™ under the following conditions. 1% retinol (0.01 gr in 1 ml) in EtOH and Neowater™ 0.5% retinol (0.005 gr in 1 ml) in EtOH and Neowater™ 0.5% retinol (0.125 gr in 25 ml) in EtOH and Neowater™ 0.25% retinol (0.0625 gr in 25 ml) in EtOH and Neowater™. […] Absorbance spectrum of retinol in EtOH: Retinol solutions were made in absolute EtOH, with different retinol concentrations, in order to create a calibration graph; absorbance spectrum was detected in a spectrophotometer. […] Actual concentration of retinol is also unknown since some oil drops are not dissolved in the water. […] The solutions were filtrated in […] filter.

A short description of data set [6]: Solubilization of peptides in Neowater (Example 9). The format is physicochemical. Conditions: Neowater at 0.5 mM. Here is the method:
In addition, the effect of the peptides on Skov-3 cells was measured in order to ascertain whether the carrier composition comprising nanostructures influenced the cytotoxic activity of the peptides.
Solubilization: All seven peptides (Peptide X, X-5FU, NLS-E, Palm-PFPSYK (CMFU), […]-NH2, NLS-p2-LHRH, and F-LH-RH-palm kGFPSK) were dissolved in Neowater™ at 0.5 mM. Spectrophotometric measurements were taken.

This is an account of results in patent publication US20100086929A1, “DETECTION OF ANALYTES” (DO-COOP TECHNOLOGIES LTD., priority 2007, published 2010).

Structures can show the parent of a compound that is named as a salt. Where no end group is shown, it is not given here.

Consider Daidzein—daunomycin conjugate [CD-Dau], for which the solubility in water entry in data set [1] is on record as “known not to dissolve in water”. Also, the dissolving result was “sedimented after a few hours” in data set [2] (Vial #1, 100% Neowater, 5 mg in 1.2 ml); 48 hours later the material sedimented partially in data set [2] (Vial #2, 100% acetone, 1.8 mg in 600 μl); “didn't dissolve very well” in data set [2] (Vial #3, 25% acetone in Neowater); “dissolved better than the CD-Dau in vial #1” in data set [2] (Vial #4, 10% PEG+Neowater); “as the acetone evaporated the material partially sediment to the bottom of the vial” in data set [2] (Vial #5, acetone then Neowater, acetone evaporated).

Regarding `CC(=O)O[C@H]1C(=O)[C@@]2(C)[C@H]([C@H](OC(=O)c3ccccc3)[C@]3(O)C[C@H](OC(=O)[C@H](O)[C@@H](NC(=O)c4ccccc4)c4ccccc4)C(C)=C1C3(C)C)[C@]1(OC(C)=O)CO[C@@H]1C[C@@H]2O` [Taxol, Paclitaxel], the “structural changes on storage (HPLC)” value in data set [3] is “no structural changes”. Moreover, the dissolving entry in data set [4] (0.5 mM in DMSO) and in data set [4] (0.5 mM in Neowater with 17% EtOH) was “dissolved” throughout.

As for `CC1=C(/C=C/C(C)=C/C=C/C(C)=C/CO)C(C)(C)CCC1` [Retinol], the “retinol concentration in EtOH with similar absorbance pattern” value in data set [5] (0.25% retinol in Neowater) is about 0.03125%; in data set [5] (0.5% retinol in Neowater) it was about 0.125%. Also, the “retinol in the solutions following filtration” value in data set [5] (0.25% retinol in Neowater, 1.5% EtOH, 0.44 and 0.2 filter) is on record as “less than 0.03125%”.

In the case of F-LH-RH-palm kGFPSK, the dissolving result in data set [6] is “dissolved”.

As to PFPSYKLRPG-NH2, in data set [6], the dissolving entry was “dissolved”.

As to `COc1cccc2c1C(=O)c1c(O)c3c(c(O)c1C2=O)C[C@@](O)(C(C)=O)C[C@@H]3O[C@H]1C[C@H](N)[C@H](O)[C@H](C)O1` [Daunorubicine, Cerubidine hydrochloride], in data set [1], the solubility in water result was “known not to dissolve in water”. The dissolving entry in data set [2] (2 mg in 1 ml Neowater) and in data set [2] (2 mg in 1 ml RO) was “dissolves without difficulty” throughout.

For the compound Palm-PFPSYK (CMFU), the dissolving result in data set [6] was “dissolved”.
